Reference: US20020037902A1 (priority 2000, published 2002)

Legend:
oligodendrocytes [1] = assay: Test 3: protective effect of riluzole on oligodendrocyte death induced by kainate; type: cell-based, Wistar rats; conditions: Kainate 1000 alone (no riluzole), 48 hours
Protocol: Oligodendrocytes were obtained from primary glial cultures of spinal cords according to the slightly modified method described by Saneto et al. (Neurochemistry, a Practical Approach, IRL Press, oxford-Washington, D.C., p 27-63 (1987)). Spinal cords from 1-day old Wistar rats were dissected under sterile conditions and separated from the meninges. Five to ten spinal cords were transferred into PBS (phosphate-buffered saline: NaCl 137 mM, KCl 2.68 mM, Na2HPO4 6.45 mM, KH2PO4 1.47 mM) to which 0.25% of trypsin was added. The enzymatic treatment was stopped by addition of Dubelco's modified Eagle's medium (DMEM) to which 10% of fetal bovine serum was added (FBS). Another dissolution step was carried out by means of a 1 ml pipette, and the cell suspension was filtered. The cells were collected by centrifugation and plated at a density of 1.5−2×10^6 cells/25 cm^2 of culture medium in Dubelco's modified Eagle's medium (DMEM) to which 10% of fetal bovine serum was added. After 3 days in vitro, the cultures were fed daily. […]
(§1) After 48 hours, measured from the start of treatment, the living oligodendrocytes were counted.
The number of Gal-C (+) oligo-dendrocytes were divided for 2 separate counts of the labeled cells in at least 12 fields of 0.63 mm^2 under a 400X microscope. The values were expressed as the number of cells per cm^2 or as the percentage of the control. […]

oligodendrocytes [2] = assay: Kainate-induced death in cultures enriched with oligodendrocytes, counting of living Gal-C (+) cells; type: cell-based, Wistar rats; conditions: 48 hours
Protocol: Oligodendrocytes were obtained from primary glial cultures of spinal cords according to the slightly modified method described by Saneto et al. (Neurochemistry, a Practical Approach, IRL Press, oxford-Washington, D.C., p 27-63 (1987)). Spinal cords from 1-day old Wistar rats were dissected under sterile conditions and separated from the meninges. Five to ten spinal cords were transferred into PBS (phosphate-buffered saline: NaCl 137 mM, KCl 2.68 mM, Na2HPO4 6.45 mM, KH2PO4 1.47 mM) to which 0.25% of trypsin was added. The enzymatic treatment was stopped by addition of Dubelco's modified Eagle's medium (DMEM) to which 10% of fetal bovine serum was added (FBS). Another dissolution step was carried out by means of a 1 ml pipette, and the cell suspension was filtered. The cells were collected by centrifugation and plated at a density of 1.5−2×10^6 cells/25 cm^2 of culture medium in Dubelco's modified Eagle's medium (DMEM) to which 10% of fetal bovine serum was added. After 3 days in vitro, the cultures were fed daily. When a visible monolayer was obtained, the cultures were stirred for 2 hours at 37° C. at 250 rpm, the culture medium was removed, and the flasks were again stirred for 22 hours. The cell-containing medium was incubated at 37° C. in petri dishes for 1 hour in order for the microglia to become attached to the plastic. The oligodendrocytes were collected by centrifugation, plated at a density of 1.6×10^6/cm^2 and maintained in DMEM containing 10% FBS for 1 or 2 days. The medium was then replaced with L15 medium to which sodium bicarbonate (22 mM), conalbumin (0.1 mg/ml), putrescine (0.1 mM), insulin (5 μg/ml), sodium selenite (31 nM), glucose (20 mM), progesterone (21 nM), penicillin (100 IU/ml), streptomycin (100 μg/ml), and horse serum (2%) were added. The oligodendrocytes rapidly differentiated within 24 to 48 hours into a mature and immature phenotype.
as §1
The number of Gal-C (+) oligo-dendrocytes were divided for 2 separate counts of the labeled cells in at least 12 fields of 0.63 mm^2 under a 400X microscope. The values were expressed as the number of cells per cm^2 or as the percentage of the control.
The statistical analyses were carried out using the Student's test (t-test).
The cultures of oligodendrocytes were exposed to concentrations of 0.1 to 1 mM kainate for 48 hours.

C=C(C)[C@H]1CN[C@H](C(=O)O)[C@H]1CC(=O)O [Kainate]
Number of oligodendrocytes % relative to the control ± standard deviation (oligodendrocytes [1]): 22.9 ± 7.1 % relative to the control
Number of oligodendrocytes % relative to the control ± standard deviation (oligodendrocytes [2]; kainate 0.01 mM): 108.2 ± 25.2 % relative to the control
Number of oligodendrocytes % relative to the control ± standard deviation (oligodendrocytes [2]; kainate 0.1 mM): 76.3 ± 27.9 % relative to the control
Number of oligodendrocytes % relative to the control ± standard deviation (oligodendrocytes [2]; kainate 0.5 mM): 25.3 ± 9.3 % relative to the control
Number of oligodendrocytes % relative to the control ± standard deviation (oligodendrocytes [2]; kainate 1 mM): 22.9 ± 7.1 % relative to the control
Induction of death of the oligodendrocytes through apoptosis (oligodendrocytes [2]; kainate at doses of from about 0.1 mM to about 1 mM): strongly induced death of the oligodendrocytes through apoptosis
